Reference: US20090055940A1, “ZEBRAFISH MODEL OF MLL LEUKEMOGENESIS” (priority 2006, published 2009)
Entries after “also recorded” stand apart in the source; their conditions may differ.

Columns and labels:
[1] = test system: zebrafish mll mRNA (exon 2-intron 2 splice junction); test: RT-PCR of zebrafish mll transcript splicing after morpholino knockdown; format: in vivo; settings: embryos injected at 1-2 cell stage with 16 ng, products sequenced
Experimental: (§1) A detailed characterization of the role of wild-type mll in the development of the zebrafish hematopoietic system was also performed. The morpholino knockdown strategy (Paffett-Lugassy et al. (2005) Methods Mol. Med., 105:171-98) was employed to characterize the phenotype of loss of mll and determine whether zebrafish mll depletion is associated with a phenotype resembling that in mammals. […] The construct was obtained from Gene Tools, LLC (Philomath, Oreg.). Target mRNA sequence was 5′-[…]gtaaacaaattctctaaattattgt-3′ (SEQ ID NO: 38; Exon 2 is capitalized; intron 2 is lower case; underline indicates 25-base sequence encompassed by morpholino). The MO E2I2 sequence was 5′-tagagaatttgtttacCTATTGACG-3′ (SEQ ID NO: 39). The normal transcript splicing is shown by the grey lines in FIG. 11A. The aberrant splicing of exon 1 to exon 3 is shown by the black lines in FIG. 11A and the thick black line in FIG. 11A indicates a second form of aberrant splicing due to failure to splice out intron 2. A 2 mM (16 ng/nl) MO E2I2 stock solution was prepared in dH2O and diluted in Danieau Solution to the desired concentration.
Wild type male and female adults were bred, fertilized eggs collected, and 100 embryos at the 1-2 cell stage were injected with 16 ng of MO E2I2. […]

[2] = test system: zebrafish embryos; test: Phenotype of zebrafish embryos after mll depletion (DIC microscopy of live embryos); format: in vivo
Experimental: as §1
Wild type male and female adults were bred, fertilized eggs collected, and 100 embryos at the 1-2 cell stage were injected with 16 ng of MO E2I2. Control uninjected embryos (n=100) and injected embryos were raised in petri dishes in E3 embryo medium (Paffett-Lugassy et al. (2005) Methods Mol. Med., 105:171-98) to the desired age. PTU (1-phenyl-2-thiourea) was applied at 24 hpf as described (Herbomel et al. (2005) Methods Mol. Med., 105:199-214) to inhibit melanin synthesis. To harvest embryos for RNA, 20 embryos were collected in 1.5 ml eppendorf tubes, E3/PTU was removed, embryos were anesthetized with tricaine, tricaine was removed, 100% methanol was added and tubes were placed at −20° C. RNA was prepared using RNeasy (Qiagen) and RT-PCR was performed using SuperScript III One Step kit (Invitrogen) with sense and antisense primers 5′-[…]-3′ (SEQ ID NO: 40) and 5′-[…]-3′ (SEQ ID NO: 41). Knockdown of properly spliced transcript and production of two aberrant transcripts shown in the schematics of FIG. 11B was confirmed by sequencing the products.
DIC images of representative live embryos were taken using Leica DMRBE microscope with 4× objective and captured using Image Pro. […] By 48 hpf, erythroid cells are seen in heart/ventral anterior yolk sac of control (filled black arrow in FIG. 11C). In contrast, erythroid cells are barely visible in morphant (unfilled black arrow), and morphant has smaller eyes (arrow) and persistent hindbrain abnormality (arrow) (FIG. 11C).

[3] = 48 hpf, 16 ng injected, vs un-injected control embryos

With “5′-tagagaatttgtttacCTATTGACG-3′ (antisense TAGAGAATTTGTTTACCTATTGACG; all phosphorodiamidate morpholino (PMO)) [MO E2I2]” the “effect on mll transcript splicing” value [1] was “effectively disrupted; also recorded: inhibited proper splicing and resulted in production of two different aberrantly spliced mll mRNAs and reduction of the normal transcript”, the “morphant phenotype by 28 hpf” value ([2]; 28 hpf, 16 ng injected, vs un-injected control embryos) was “aberrant protrusion at the tip of the head and enlarged hindbrain ventricle” and the “erythroid cells in the heart and at the ventral yolk sac by 48 hpf” value [2, 3] was “substantially less erythroid cells”. The “other morphant features (eyes, hindbrain)” value [2, 3] was “smaller eyes and a prominent hindbrain abnormality”, the “viability of morphant embryos” value ([2]; embryos injected with 16 ng at 1-2 cell stage) was “viable” and the “embryos exhibiting a phenotype that included hematopoietic and neuronal defects, small size, and delayed development” value ([2]; of the 100 embryos injected with 16 ng at 1-2 cell stage) was “Approximately 60%”.
